Measurements published in patent US9085584B2, “Substituted pyrido[3,2-E][1,2,4]-triazolo[4,3-A]pyrazines for the treatment of central nervous system disorders” (Boehringer Ingelheim International GmbH, priority 2012, dated 2015).

Test: Metabolic stability in pooled liver microsomes
Type: in vitro ADME, human
Conditions: human liver microsomes, 1 μM test compound, 37° C.
Description: The metabolic stability of the compounds according to the invention has been investigated as follows:
The metabolic degradation of the test compound was assayed at 37° C. with pooled liver microsomes from various species. The final incubation volume of 100 μl per time point contains TRIS buffer pH 7.6 at room temperature (0.1 M), magnesium chloride (5 mM), microsomal protein (1 mg/mL for human and dog, 0.5 mg/mL for other species) and the test compound at a final concentration of 1 μM. Following a short preincubation period at 37° C., the reactions were initiated by addition of betanicotinamide adenine dinucleotide phosphate, reduced form (NADPH, 1 mM), and terminated by transferring an aliquot into solvent after different time points. […] The half-life was determined by the slope of the semi-logarithmic plot of the concentration-time profile.

SMILES | Half-life - t½
Cc1ccc(OC2COCC2O)cc1-c1nnc2c(C)nc3ccc(C4CC4)nc3n12 (racemic) [Example 57] | 2.17 h
Cc1nc2ccc(C3CC3)nc2n2c(-c3cc(OC4COCC4O)ccc3Cl)nnc12 (racemic) [Example 58a] | 2.17 h
Cc1ccc(C2(O)CCOCC2O)cc1-c1nnc2c(C)nc3ccc(C4CC4)nc3n12 (racemic) [Example 104] | 2.17 h
Cc1nc2cccnc2n2c(-c3cc(OC4COCC4O)ccc3Cl)nnc12 (single isomer, unassigned) [Example 55a] | 2.17 h
Cc1nc2ccc(C3CC3)nc2n2c(-c3cc(OC4COCC4O)ccc3Cl)nnc12 (single isomer, unassigned) [Example 56b] | 1.03 h
Cc1ccc(OC2COCC2O)cc1-c1nnc2c(C)nc3ccc(C4CC4)nc3n12 (single isomer, unassigned) [Example 57a] | 2.17 h
Cc1nc2cccnc2n2c(-c3cc(OC4COCCC4O)ccc3Cl)nnc12 (single isomer, unassigned) [Example 58] | 2.17 h
Cc1nc2ccc(C3CC3)nc2n2c(-c3cc(OC4COCC4O)ccc3Cl)nnc12 (single isomer, unassigned) [Example 58b] | 2.17 h
Cc1nc2ccc(C3CC3)nc2n2c(-c3cc(OC4COCC4O)ccc3Cl)nnc12 (single isomer, unassigned) [Example 58c] | 2.17 h
Cc1nc2cccnc2n2c(-c3cc(C4(O)CCOC4)ccc3Cl)nnc12 (single isomer, unassigned) [Example 99] | 2.17 h
Cc1ccc(C2(O)CCOCC2O)cc1-c1nnc2c(C)nc3ccc(C4CC4)nc3n12 (single isomer, unassigned) [Example 104a] | 2.17 h
Cc1nc2cccnc2n2c(-c3cc(O)ccc3Cl)nnc12 [Example 1] | 2.17 h
Cc1nc2cccnc2n2c(-c3cc(OCCCO)ccc3Cl)nnc12 [Example 13] | 2.17 h
Cc1nc2cccnc2n2c(-c3cc(OC[C@@H](C)O)ccc3Cl)nnc12 [Example 17] | 2.17 h
Cc1nc2cccnc2n2c(-c3cc(OC[C@H](C)O)ccc3Cl)nnc12 [Example 18] | 2.17 h
Cc1nc2cccnc2n2c(-c3cc(OC4CCOCC4)ccc3Cl)nnc12 [Example 20] | 2.17 h
Cc1nc2cccnc2n2c(-c3cc(OC4CCC(F)(F)CC4)ccc3Cl)nnc12 [Example 21] | 2.17 h
Cc1ccc2nc(C)c3nnc(-c4cc(OC5CCC(F)(F)CC5)ccc4Cl)n3c2n1 [Example 30] | 2.17 h
Cc1ccc2nc(C)c3nnc(-c4cc(OC5CCOCC5)ccc4Cl)n3c2n1 [Example 32] | 2.17 h
Cc1ccc2nc(C)c3nnc(-c4cc(OC[C@H](C)O)ccc4Cl)n3c2n1 [Example 34] | 2.17 h
Cc1ccc2nc(C)c3nnc(-c4cc(OC[C@@H](C)O)ccc4Cl)n3c2n1 [Example 35] | 2.17 h
Cc1ccc2nc(C)c3nnc(-c4cc(O[C@@H]5CCOC5)ccc4Cl)n3c2n1 [Example 42] | 2.17 h
Cc1ccc2nc(C)c3nnc(-c4cc(O[C@H]5CCOC5)ccc4Cl)n3c2n1 [Example 43] | 2.17 h
Cc1nc2cccnc2n2c(-c3cc(OCC(C)(C)O)ccc3Cl)nnc12 [Example 44] | 2.17 h

SMILES | Half-life - t½
Cc1nc2ccc(C3CC3)nc2n2c(-c3cc(OCC(C)(C)O)ccc3Cl)nnc12 [Example 45] | 2.17 h
Cc1ccc2nc(C)c3nnc(-c4cc(OCC(C)(C)O)ccc4Cl)n3c2n1 [Example 46] | 2.17 h
Cc1nc2ccc(C3CC3)nc2n2c(-c3cc(OCC(C)(C)O)ccc3F)nnc12 [Example 47] | 2.17 h
Cc1ccc(OCC(C)(C)O)cc1-c1nnc2c(C)nc3ccc(C4CC4)nc3n12 [Example 48] | 2.17 h
Cc1nc2cccnc2n2c(-c3cc(OCC4(O)CCC4)ccc3Cl)nnc12 [Example 49] | 2.17 h
Cc1ccc(OCC2(O)CCC2)cc1-c1nnc2c(C)nc3cccnc3n12 [Example 50] | 2.17 h
Cc1ccc(OCC(C)(C)O)cc1-c1nnc2c(C)nc3ccc(C(C)C)nc3n12 [Example 51] | 2.17 h
Cc1nc2ccc(C(C)C)nc2n2c(-c3cc(OCC(C)(C)O)ccc3F)nnc12 [Example 52] | 2.17 h
Cc1nc2cc(C(C)C)cnc2n2c(-c3cc(OCC(C)(C)O)ccc3Cl)nnc12 [Example 54] | 2.17 h
Cc1ccc2nc(C)c3nnc(-c4cc(C(O)C(C)C)ccc4Cl)n3c2n1 (stereo not drawn) [Example 59] | 0.817 h
CCC(O)c1ccc(Cl)c(-c2nnc3c(C)nc4ccc(C)nc4n23)c1 (stereo not drawn) [Example 62] | 2.17 h
Cc1ccc2nc(C)c3nnc(-c4cc(C(C)O)ccc4Cl)n3c2n1 (stereo not drawn) [Example 63] | 2.17 h
Cc1nc2cccnc2n2c(-c3cc(CCC(C)(C)O)ccc3Cl)nnc12 [Example 64] | 2.17 h
Cc1ccc(CCC(C)(C)O)cc1-c1nnc2c(C)nc3cccnc3n12 [Example 67] | 2.17 h
Cc1nc2cccnc2n2c(-c3cc(C(C)(C)O)ccc3Cl)nnc12 [Example 70] | 2.17 h
Cc1ccc2nc(C)c3nnc(-c4cc(C(C)(C)O)ccc4Cl)n3c2n1 [Example 71] | 2.17 h
Cc1nc2ccc(C3(C)CC3)nc2n2c(-c3cc(C(C)(C)O)ccc3F)nnc12 [Example 72] | 2.17 h
Cc1nc2ccc(C3CC3)nc2n2c(-c3cc(C(C)(C)O)ccc3F)nnc12 [Example 76] | 2.17 h
Cc1nc2cccnc2n2c(-c3cc(CC(C)(C)O)ccc3Cl)nnc12 [Example 82] | 2.17 h
Cc1nc2ccc(C3CC3)nc2n2c(-c3cc(C(C)(C)O)ccc3Cl)nnc12 [Example 85] | 2.17 h
Cc1nc2cccnc2n2c(-c3cc(C4(O)CCC4)ccc3Cl)nnc12 [Example 87] | 2.17 h
Cc1ccc2nc(C)c3nnc(-c4cc(C5(O)CCC5)ccc4Cl)n3c2n1 [Example 89] | 2.17 h
Cc1nc2cccnc2n2c(-c3cc(C4(O)CCOCC4)ccc3Cl)nnc12 [Example 93] | 2.17 h
Cc1ccc2nc(C)c3nnc(-c4cc(C5(O)CCC5)ccc4C)n3c2n1 [Example 102] | 2.17 h

Same assay, conditions: human, pooled liver microsomes, pH 7.6, human liver microsomes, 1 μM test compound, 37° C.; read-out: Half-life - t½

SMILES | half-life at 1 μM
Cc1nc2ccc(C3CC3)nc2n2c(-c3cc(OC4COCC4O)ccc3Cl)nnc12 (racemic) [Example 56] | 2 h
Cc1nc2ccc(C3CC3)nc2n2c(-c3cc(OC4COCC4O)ccc3Cl)nnc12 (single isomer, unassigned) [Example 56a] | 1.83 h
Cc1ccc(OC2COCC2O)cc1-c1nnc2c(C)nc3ccc(C4CC4)nc3n12 (single isomer, unassigned) [Example 57b] | 1.55 h
Cc1nc2ccc(C3CC3)nc2n2c(-c3cc(O)ccc3F)nnc12 [Example 5] | 0.717 h
Cc1ccc(O)cc1-c1nnc2c(C)nc3ccc(C4CC4)nc3n12 [Example 6] | 1.1 h
Cc1nc2ccc(C3CC3)nc2n2c(-c3cc(O)ccc3Cl)nnc12 [Example 9] | 0.683 h
Cc1nc2ccc(C(F)(F)F)nc2n2c(-c3cc(O)ccc3Cl)nnc12 [Example 12] | 1.05 h
Cc1nc2ccc(C3CC3)nc2n2c(-c3cc(OC4CCOCC4)ccc3Cl)nnc12 [Example 32a] | 0.6 h
CCCC(O)c1ccc(Cl)c(-c2nnc3c(C)nc4ccc(C)nc4n23)c1 (stereo not drawn) [Example 61] | 1.08 h
Cc1nc2ccc(C3CC3)nc2n2c(-c3cc(CCC(C)(C)O)ccc3F)nnc12 [Example 66] | 0.95 h
Cc1ccc(CCC(C)(C)O)cc1-c1nnc2c(C)nc3ccc(C4CC4)nc3n12 [Example 68] | 0.65 h
Cc1nc2ccc(C3CC3)nc2n2c(-c3cc(CCC(C)(C)O)ccc3Cl)nnc12 [Example 69] | 0.883 h
Cc1nc2ccc(C(C)C)nc2n2c(-c3cc(C(C)(C)O)ccc3Cl)nnc12 [Example 77] | 1.5 h
Cc1ccc(C(C)(C)O)cc1-c1nnc2c(C)nc3ccc(C(C)C)nc3n12 [Example 78] | 1.32 h
Cc1nc2ccc(C3CC3)nc2n2c(-c3cc(CC(C)(C)O)ccc3F)nnc12 [Example 80] | 1.38 h
Cc1ccc(CC(C)(C)O)cc1-c1nnc2c(C)nc3ccc(C4CC4)nc3n12 [Example 81] | 0.433 h
Cc1nc2ccc(C3CC3)nc2n2c(-c3cc(CC(C)(C)O)ccc3Cl)nnc12 [Example 83] | 1.67 h
Cc1nc2ccc(C3CC3)nc2n2c(-c3cc(C4(O)CCC4)ccc3F)nnc12 [Example 84] | 0.65 h
Cc1nc2ccc(C3CC3)nc2n2c(-c3cc(C4(O)CCC4)ccc3Cl)nnc12 [Example 88] | 0.883 h
Cc1nc2ccc(C(C)C)nc2n2c(-c3cc(C4(O)CCC4)ccc3Cl)nnc12 [Example 91] | 0.467 h
Cc1nc2ccc(C(C)C)nc2n2c(-c3cc(C4(O)CCC4)ccc3F)nnc12 [Example 92] | 0.383 h
Cc1nc2ccc(C3CC3)nc2n2c(-c3cc(C4(O)CCOCC4)ccc3Cl)nnc12 [Example 94] | 0.633 h
Cc1nc2ccc(C(F)(F)F)nc2n2c(-c3cc(C4(O)CCOCC4)ccc3Cl)nnc12 [Example 96] | 1.83 h
Cc1nc2ccc(C3CC3)nc2n2c(-c3cc(C(C)(C)CO)ccc3F)nnc12 [Example 101] | 0.367 h
